Common to all, as to format: cell-based, human
The subject of experiment [1] is Aldefluor activity (ALDH) in LCSC6. The experiment is described as follows: Cytofluorimetric analysis of Aldefluor activity. The settings on record: LCSC6, representative analysis; NanoFEN at IC50 dose, Gemcytabine 25 µM; CTRL 38,6%. As for the experimental part:
Values represent mean ± SD of three independent experiments. **P < 0.01; ***P < 0.001 from two-tailed t-test. d Schematic representation of stem-like factors (repressed in grey) emerged from RPPA analysis of lung CSCs treated as described in Fig. 4a. e Cytofluorimetric analysis of Aldefluor activity on LCSC6 treated with NanoFEN at IC50 dose and Gemcytabine 25 μM for 48 h. Values represent mean ± SD of three independent experiments. **P < 0.01; ***P < 0.001 from two-tailed t-test. f qRT-PCR analysis of indicated genes on whole tumor lysates derived from LCSC6 xenografts, untreated or treated with NanoFEN 30 mg/Kg/week and Cis 3 mg/Kg/week and Gem 60 mg/Kg/week (Cis + Gem). Values represent mean ± SD of three independent experiments. *P < 0.05; **P < 0.01 from two-tailed t-test. g Flow cytometry analysis of TOP-GFP.mc-transduced CSC7, untreated and treated with NanoFEN at the IC50 dose 0.2 μM and OXA 10 μM for 48 h. Values represent mean ± SD of three independent experiments. **P < 0.01 from two-tailed t-test. h Volume of xenografts derived from CSC10 transduced with TOP-GFP.mc untreated (black downward triangles) or treated with vehicle or treated NanoFEN 30 mg/Kg/week (green upward triangles) and OXA 5 mg/Kg/week plus 5FU 12.5 mg/Kg/week (red squares). […]

The subject of experiment [2] is reactive oxygen species (ROS) in LCSC6. Put plainly: Measurement of intracellular ROS levels (CM-H2DCFDA, flow cytometer). The settings on record: LCSC6, NAC 2mM for 1h, then NanoFEN 4,9µM for 48 hours. As for the experimental part: An equal number of dissociated spheroid cells (2.5 × 10^5) were seeded in 6-well cell culture plates. Briefly, each cell line was incubated with NanoFEN at IC50 concentration and pre-treated for 1 h with the antioxidant N-Acetyl-Cysteine (NAC). At different times, the cells were washed twice with pre-warmed Phosphate Saline Buffer (PBS) and then incubated in the same buffer containing 5 μM CM-H2DCFDA with DMSO alone at 37 °C. The fluorescence intensity of DCF was measured at 527 nm emission wavelength after excitation at 492 nm at 1 h intervals for up to 48 h using a Flow Cytometer Accuri (Becton Dickinson). An increase in fluorescence intensity as arbitrary units indicated the net generation of intracellular ROS.

The subject of experiment [3] is LCSC6 lung cancer spheroid cells. The experiment is described as follows: Cell viability assay (CellTiter-Glo). The method, then: (§1) Briefly, lung and colorectal spheroids were dissociated mechanically or with TrypLE Express (Thermo Fisher Scientific) respectively and seeded 3 × 10^3 per well in 96-well plates (three replicates per experimental point) in serum-free medium, and incubated in a humidified atmosphere at 37 °C, 5% CO2. Cells were treated with the respective compounds and analysed after the appropriate time period as described in detail in Figure Legends. Luminescence was detected with a DTX880 multimode microplate reader (Beckman Coulter, Brea, CA, USA).

In experiment [4] the test system is CSC 7 colorectal spheroid cells. Put plainly: Cell viability assay (CellTiter-Glo). As for the experimental part:
as §1, with “Cell viability upon treatment with NanoFEN, zVAD, NAC, 3-MA, Myriocin, PPMP, GT11, SA and Rapamycin was determined by CellTiter-Glo luminescent cell viability assay (Promega, Madison, WI, USA) according to the manufacturer’s directions. Briefly,” for “Briefly,”
On the technique in general: ATP-based viability assays read luminescence as a measure of living cells.

In experiment [5] the test system is LCSC2 lung cancer spheroid cells. Put plainly: Cell viability assay (CellTiter-Glo). The settings on record: LCSC2, GT11 0,5µM plus SA 2µM plus Rapamycin 10nM, 48 hours. As for the experimental part: as §1, with “Cell viability upon treatment with NanoFEN, zVAD, NAC, 3-MA, Myriocin, PPMP, GT11, SA and Rapamycin was determined by CellTiter-Glo luminescent cell viability assay (Promega, Madison, WI, USA) according to the manufacturer’s directions. Briefly,” for “Briefly,”

For the molecule `Nc1ccn([C@@H]2O[C@H](CO)[C@@H](O)C2(F)F)c(=O)n1` [Gem, gemcitabine], in experiment [1], the “ALDH+” value was 74,6%.

For the molecule `CC(=O)N[C@@H](CS)C(=O)O` [NAC, N-Acetyl-L-Cysteine], the “ROS levels in NanoFEN-treated cells after pretreatment” value in experiment [2] is recorded as “reduced”. In addition, the “effect on NanoFEN-induced death (cell viability)” value (“effect on NanoFEN-induced death” for short) is “partially rescued” in experiment [3] (LCSC6 pretreated with NAC 2 mM for 1 h, then NanoFEN 4.9 μM, 48 h) and “partially rescued” in experiment [4] (CSC7 pretreated with NAC 2 mM for 1 h, then NanoFEN 0.2 μM, 48 h).

For `COC(=O)C[C@H](NC(=O)[C@H](C)NC(=O)[C@@H](NC(=O)OCc1ccccc1)C(C)C)C(=O)CF` (racemic) [zVAD-fmk, z-Val-Ala-DL-Asp-fluoromethylketone], the “effect on NanoFEN-induced toxicity (cell viability)” value in experiment [3] (LCSC6 pretreated with zVAD 40 μΜ, then NanoFEN 4.9 μM, 48 h) is “did not substantially inhibit”; in experiment [4] (CSC7 pretreated with zVAD 40 μΜ, then NanoFEN 0.2 μM, 48 h) it was “did not substantially inhibit”.

Turning to `CCCCCCCCCCCCCCCC(=O)NC(CN1CCOCC1)C(O)c1ccccc1` (stereo not shown) [PPMP, 1-phenyl-2-palmitoylamino-3-morpholino-1-propanol], the “effect on NanoFEN-induced death” value in experiment [3] (LCSC6, PPMP 10 μM plus NanoFEN 4.9 μM, 48 h) is “unable to block”; in experiment [4] (CSC7, PPMP 10 μM plus NanoFEN 0.2 μM, 48 h), “unable to block”.

Turning to `Cn1cnc(N)c2ncnc1-2` [3-MA, 3-Methyladenine], the “effect on NanoFEN-induced death” value in experiment [3] (LCSC6, 3-MA 5 mM plus NanoFEN 4.9 μM, 24 h) is “able to counteract”; in experiment [4] (CSC7, 3-MA 5 mM plus NanoFEN 0.2 μM, 24 h) it was “able to counteract”.

As for `CCCCCCCCCCCCCCC[C@@H](O)[C@@H](N)CO` [SA, sphinganine], the cell viability entry in experiment [3] (LCSC6, 48 hours, SA 2, 4, 6 µM, GT11 0,5, 2, 5 µM) is recorded as “dose-dependent viability decrease”.

In the case of `CCCCCCC(=O)CCCCCC/C=C/C[C@@H](O)[C@H](O)[C@@](N)(CO)C(=O)O` [myriocin], the “effect on NanoFEN-induced death” value in experiment [3] (LCSC6, Myriocin 1 μM plus NanoFEN 4.9 μM, 48 h) is on record as “partially protected”; in experiment [4] (CSC7, Myriocin 1 μM plus NanoFEN 0.2 μM, 48 h), “partially protected”.

On to `CO[C@H]1C[C@@H]2CC[C@@H](C)[C@@](O)(O2)C(=O)C(=O)N2CCCC[C@H]2C(=O)O[C@H]([C@H](C)C[C@@H]2CC[C@@H](O)[C@H](OC)C2)CC(=O)[C@H](C)/C=C(\C)[C@@H](O)[C@@H](OC)C(=O)[C@H](C)C[C@H](C)/C=C/C=C/C=C/1C` [rapamycin], for which the “effect on the toxic effects of the SA/GT11 combination (cell viability)” value was “significantly potentiated” in experiment [3] (LCSC6, GT11 0.5 μM plus SA 2 μM plus Rapamycin 10 nM, 48 h); “significantly potentiated” in experiment [5]; “significantly potentiated” in experiment [4] (CSC7, GT11 0.5 μM plus SA 2 μM plus Rapamycin 10 nM, 48 h).

(Values after PMC6646369, “A new bioavailable fenretinide formulation with antiproliferative, antimetabolic, and cytotoxic effects on solid tumors” (Cell Death & Disease, 2019).)
